# In PMC6591251, “Discovery of potent necroptosis inhibitors targeting RIPK1 kinase activity for the treatment of inflammatory disorder and cancer metastasis” (Cell Death & Disease, 2019):
# Columns and labels:
# Experiment in all cases: RBC kinase panel
# Assay type in all cases: biochemical
# GSK3b = molecular target: T1, GSK3b (Homo sapiens, UniProt P49841); conditions: ATP 10 μM, Data1, Data2
# T1 construct: purchased Reaction Biology Corporation
# Procedure, shortened: (§1)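 Duplicate determinations were made for each of 369 human kinases exposed to 1 μM compound, with reactions run at 10 μM ATP.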
# STK32C/YANK3 = molecular target: T2, STK32C/YANK3 (Homo sapiens, UniProt Q86UX6); conditions: ATP 10 μM, Data1, Data2
# T2 construct: purchased Reaction Biology Corporation
# Procedure, shortened: as §1
# DMPK2 = molecular target: T3, DMPK2 (Homo sapiens, UniProt Q6DT37); conditions: ATP 10 μM, Data1, Data2
# T3 construct: purchased Reaction Biology Corporation
# Procedure, shortened: as §1
# PDGFRb = molecular target: T4, PDGFRb (Homo sapiens, UniProt P09619); conditions: ATP 10 μM, Data1, Data2
# T4 construct: purchased Reaction Biology Corporation
# Procedure, shortened: as §1
# MSSK1/STK23 = molecular target: T5, MSSK1/STK23 (Homo sapiens, UniProt Q9UPE1); conditions: ATP 10 μM, Data1, Data2
# T5 construct: purchased Reaction Biology Corporation
# Procedure, shortened: as §1
# PKG1a = molecular target: T6, PKG1a (Homo sapiens, UniProt Q13976); conditions: ATP 10 μM, Data1, Data2
# T6 construct: purchased Reaction Biology Corporation
# Procedure, shortened: as §1
# JAK3 = molecular target: T7, JAK3 (Homo sapiens, UniProt P52333); conditions: ATP 10 μM, Data1, Data2
# T7 construct: purchased Reaction Biology Corporation
# Procedure, shortened: as §1
# GRK5 = molecular target: T8, GRK5 (Homo sapiens, UniProt P34947); conditions: ATP 10 μM, Data1, Data2
# T8 construct: purchased Reaction Biology Corporation
# Procedure, shortened: as §1
# CDK2/cyclin A = molecular target: T9, CDK2/cyclin A (Homo sapiens, UniProt P24941); conditions: ATP 10 μM, Data1, Data2
# T9 construct: purchased Reaction Biology Corporation
# Procedure, shortened: as §1
# ARAF = molecular target: T10, ARAF (Homo sapiens, UniProt P10398); conditions: ATP 10 μM, Data1, Data2
# T10 construct: purchased Reaction Biology Corporation
# Procedure, shortened: as §1
# TRKB = molecular target: T11, TRKB (Homo sapiens, UniProt Q16620)
# T11 construct: purchased Reaction Biology Corporation
# Procedure, shortened: as §1
# PLK2 = molecular target: T12, PLK2 (Homo sapiens, UniProt Q9NYY3); conditions: ATP 10 μM, Data1, Data2
# T12 construct: purchased Reaction Biology Corporation
# Procedure, shortened: as §1
# HIPK1 = molecular target: T13, HIPK1 (Homo sapiens, UniProt Q86Z02); conditions: ATP 10 μM, Data1, Data2
# T13 construct: purchased Reaction Biology Corporation
# Procedure, shortened: as §1
# CDK4/cyclin D1 = molecular target: T14, CDK4/cyclin D1 (Homo sapiens, UniProt P11802); conditions: ATP 10 μM, Data1, Data2
# T14 construct: purchased Reaction Biology Corporation
# Procedure, shortened: as §1
# ZAP70 = molecular target: T15, ZAP70 (Homo sapiens, UniProt P43403); conditions: ATP 10 μM, Data1, Data2
# T15 construct: purchased Reaction Biology Corporation
# Procedure, shortened: as §1
# CAMK1a = molecular target: T16, CAMK1a (Homo sapiens, UniProt Q14012); conditions: ATP 10 μM, Data1, Data2
# T16 construct: purchased Reaction Biology Corporation
# Procedure, shortened: as §1
# CDK3/cyclin E = molecular target: T17, CDK3/cyclin E (Homo sapiens, UniProt Q00526); conditions: ATP 10 μM, Data1, Data2
# T17 construct: purchased Reaction Biology Corporation
# Procedure, shortened: as §1
# LATS2 = molecular target: T18, LATS2 (Homo sapiens, UniProt Q9NRM7); conditions: ATP 10 μM, Data1, Data2
# T18 construct: purchased Reaction Biology Corporation
# Procedure, shortened: as §1
# CTK/MATK = molecular target: T19, CTK/MATK (Homo sapiens, UniProt P42679); conditions: ATP 10 μM, Data1, Data2
# T19 construct: purchased Reaction Biology Corporation
# Procedure, shortened: as §1
# ULK3 = molecular target: T20, ULK3 (Homo sapiens, UniProt Q6PHR2); conditions: ATP 10 μM, Data1, Data2
# T20 construct: purchased Reaction Biology Corporation
# Procedure, shortened: as §1
# P38d/MAPK13 = molecular target: T21, P38d/MAPK13 (Homo sapiens, UniProt O15264); conditions: ATP 10 μM, Data1, Data2
# T21 construct: purchased Reaction Biology Corporation
# Procedure, shortened: as §1
# CDK18/cyclin Y (PCTK3) = molecular target: T22, CDK18/cyclin Y (PCTK3) (Homo sapiens, UniProt Q07002); conditions: ATP 10 μM, Data1, Data2
# T22 construct: purchased Reaction Biology Corporation
# Procedure, shortened: as §1
# CAMK2g = molecular target: T23, CAMK2g (Homo sapiens, UniProt Q13555); conditions: ATP 10 μM, Data1, Data2
# T23 construct: purchased Reaction Biology Corporation
# Procedure, shortened: as §1
# PKG2/PRKG2 = molecular target: T24, PKG2/PRKG2 (Homo sapiens, UniProt Q13237); conditions: ATP 10 μM, Data1, Data2
# T24 construct: purchased Reaction Biology Corporation
# Procedure, shortened: as §1
# STK25/YSK1 = molecular target: T25, STK25/YSK1 (Homo sapiens, UniProt O00506); conditions: ATP 10 μM, Data1, Data2
# T25 construct: purchased Reaction Biology Corporation
# Procedure, shortened: as §1
# ALK5/TGFBR1 = molecular target: T26, ALK5/TGFBR1 (Homo sapiens, UniProt P36897); conditions: ATP 10 μM, Data1, Data2
# T26 construct: purchased Reaction Biology Corporation
# Procedure, shortened: as §1
# PKN3/PRK3 = molecular target: T27, PKN3/PRK3 (Homo sapiens, UniProt Q6P5Z2); conditions: ATP 10 μM, Data1, Data2
# T27 construct: purchased Reaction Biology Corporation
# Procedure, shortened: as §1
# BMPR2 = molecular target: T28, BMPR2 (Homo sapiens, UniProt Q13873); conditions: ATP 10 μM, Data1, Data2
# T28 construct: purchased Reaction Biology Corporation
# Procedure, shortened: as §1
# VRK2 = molecular target: T29, VRK2 (Homo sapiens, UniProt Q86Y07); conditions: ATP 10 μM, Data1, Data2
# T29 construct: purchased Reaction Biology Corporation
# Procedure, shortened: as §1
# p70S6Kb/RPS6KB2 = molecular target: T30, p70S6Kb/RPS6KB2 (Homo sapiens, UniProt Q9UBS0); conditions: ATP 10 μM, Data1, Data2
# T30 construct: purchased Reaction Biology Corporation
# Procedure, shortened: as §1
# CK1g2 = molecular target: T31, CK1g2 (Homo sapiens, UniProt P78368); conditions: ATP 10 μM, Data1, Data2
# T31 construct: purchased Reaction Biology Corporation
# Procedure, shortened: as §1
# CDC7/DBF4 = molecular target: T32, CDC7/DBF4 (Homo sapiens, UniProt O00311); conditions: ATP 10 μM, Data1, Data2
# T32 construct: purchased Reaction Biology Corporation
# Procedure, shortened: as §1
# T11 sequence (Q16620 32-822): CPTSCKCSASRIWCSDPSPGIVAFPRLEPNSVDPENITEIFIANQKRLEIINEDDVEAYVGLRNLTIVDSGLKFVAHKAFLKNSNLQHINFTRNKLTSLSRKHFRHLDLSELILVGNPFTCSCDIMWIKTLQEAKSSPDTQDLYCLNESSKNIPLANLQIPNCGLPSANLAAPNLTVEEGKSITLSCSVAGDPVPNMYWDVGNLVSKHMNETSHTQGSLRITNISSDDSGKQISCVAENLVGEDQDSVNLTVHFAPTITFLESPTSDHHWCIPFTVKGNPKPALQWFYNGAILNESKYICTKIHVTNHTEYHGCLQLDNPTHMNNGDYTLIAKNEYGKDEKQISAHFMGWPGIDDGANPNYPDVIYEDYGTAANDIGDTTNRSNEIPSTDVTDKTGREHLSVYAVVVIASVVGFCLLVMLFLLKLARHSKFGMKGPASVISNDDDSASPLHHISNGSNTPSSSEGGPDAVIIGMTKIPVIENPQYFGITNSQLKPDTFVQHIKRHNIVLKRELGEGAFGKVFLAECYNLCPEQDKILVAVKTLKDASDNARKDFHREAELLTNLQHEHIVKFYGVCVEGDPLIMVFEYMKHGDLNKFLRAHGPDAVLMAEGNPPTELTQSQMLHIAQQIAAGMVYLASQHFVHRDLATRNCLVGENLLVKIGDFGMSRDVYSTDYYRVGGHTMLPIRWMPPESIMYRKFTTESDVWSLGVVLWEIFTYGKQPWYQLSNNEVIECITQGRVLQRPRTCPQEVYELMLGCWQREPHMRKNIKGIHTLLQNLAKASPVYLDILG
# T25 sequence (O00506 whole entry): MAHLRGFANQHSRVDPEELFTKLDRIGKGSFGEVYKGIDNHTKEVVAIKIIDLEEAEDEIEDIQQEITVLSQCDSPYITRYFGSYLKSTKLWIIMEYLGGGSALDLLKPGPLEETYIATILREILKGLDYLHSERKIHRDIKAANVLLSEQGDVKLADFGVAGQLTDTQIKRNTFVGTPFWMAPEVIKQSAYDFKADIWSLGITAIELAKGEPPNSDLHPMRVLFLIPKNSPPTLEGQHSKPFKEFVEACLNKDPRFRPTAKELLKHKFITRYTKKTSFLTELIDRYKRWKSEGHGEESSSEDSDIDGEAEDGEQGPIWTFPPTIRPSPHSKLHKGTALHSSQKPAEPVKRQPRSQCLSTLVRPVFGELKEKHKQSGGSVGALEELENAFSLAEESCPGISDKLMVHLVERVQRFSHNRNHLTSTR
# T30 sequence (Q9UBS0 whole entry): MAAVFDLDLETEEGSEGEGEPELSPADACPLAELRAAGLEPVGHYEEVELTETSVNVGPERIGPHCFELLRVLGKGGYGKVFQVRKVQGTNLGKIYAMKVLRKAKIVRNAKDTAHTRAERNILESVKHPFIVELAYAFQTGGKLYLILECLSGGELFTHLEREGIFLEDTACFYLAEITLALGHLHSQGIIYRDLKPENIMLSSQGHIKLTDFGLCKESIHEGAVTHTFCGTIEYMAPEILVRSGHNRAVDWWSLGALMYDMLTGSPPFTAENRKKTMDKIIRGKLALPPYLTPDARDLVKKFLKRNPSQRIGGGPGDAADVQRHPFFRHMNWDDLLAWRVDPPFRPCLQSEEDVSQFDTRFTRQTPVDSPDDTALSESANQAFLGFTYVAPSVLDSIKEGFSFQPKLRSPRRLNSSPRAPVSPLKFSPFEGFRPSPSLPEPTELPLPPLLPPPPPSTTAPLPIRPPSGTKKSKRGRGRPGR
# T12 sequence (Q9NYY3 whole entry): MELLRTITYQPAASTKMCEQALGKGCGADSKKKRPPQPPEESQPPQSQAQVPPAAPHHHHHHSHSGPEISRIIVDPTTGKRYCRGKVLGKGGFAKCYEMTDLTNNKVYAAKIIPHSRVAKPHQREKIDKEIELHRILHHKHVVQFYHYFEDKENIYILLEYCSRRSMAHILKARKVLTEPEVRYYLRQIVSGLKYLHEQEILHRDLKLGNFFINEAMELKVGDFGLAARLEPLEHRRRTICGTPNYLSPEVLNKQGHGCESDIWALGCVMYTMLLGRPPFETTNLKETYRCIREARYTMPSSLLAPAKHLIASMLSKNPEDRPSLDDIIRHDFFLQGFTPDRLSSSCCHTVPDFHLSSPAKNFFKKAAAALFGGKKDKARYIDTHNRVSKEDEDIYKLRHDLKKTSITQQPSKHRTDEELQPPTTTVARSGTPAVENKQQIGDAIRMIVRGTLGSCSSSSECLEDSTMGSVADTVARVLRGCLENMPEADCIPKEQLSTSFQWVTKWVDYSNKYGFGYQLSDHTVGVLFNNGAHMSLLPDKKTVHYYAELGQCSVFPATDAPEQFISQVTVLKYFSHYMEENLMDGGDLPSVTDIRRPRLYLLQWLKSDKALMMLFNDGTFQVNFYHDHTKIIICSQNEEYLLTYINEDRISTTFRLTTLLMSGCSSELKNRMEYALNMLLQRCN
# T31 sequence (P78368 whole entry): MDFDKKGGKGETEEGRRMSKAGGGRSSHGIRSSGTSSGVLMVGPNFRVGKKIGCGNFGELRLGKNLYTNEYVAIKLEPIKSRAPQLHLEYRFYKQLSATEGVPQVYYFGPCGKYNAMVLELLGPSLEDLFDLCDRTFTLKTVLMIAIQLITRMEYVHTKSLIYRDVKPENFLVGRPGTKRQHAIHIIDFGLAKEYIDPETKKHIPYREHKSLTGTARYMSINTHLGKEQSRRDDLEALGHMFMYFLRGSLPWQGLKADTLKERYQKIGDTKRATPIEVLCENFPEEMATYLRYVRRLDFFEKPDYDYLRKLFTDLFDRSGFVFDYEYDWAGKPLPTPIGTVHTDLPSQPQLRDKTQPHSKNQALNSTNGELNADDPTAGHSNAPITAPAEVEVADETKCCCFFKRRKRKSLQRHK
# T18 sequence (Q9NRM7 whole entry): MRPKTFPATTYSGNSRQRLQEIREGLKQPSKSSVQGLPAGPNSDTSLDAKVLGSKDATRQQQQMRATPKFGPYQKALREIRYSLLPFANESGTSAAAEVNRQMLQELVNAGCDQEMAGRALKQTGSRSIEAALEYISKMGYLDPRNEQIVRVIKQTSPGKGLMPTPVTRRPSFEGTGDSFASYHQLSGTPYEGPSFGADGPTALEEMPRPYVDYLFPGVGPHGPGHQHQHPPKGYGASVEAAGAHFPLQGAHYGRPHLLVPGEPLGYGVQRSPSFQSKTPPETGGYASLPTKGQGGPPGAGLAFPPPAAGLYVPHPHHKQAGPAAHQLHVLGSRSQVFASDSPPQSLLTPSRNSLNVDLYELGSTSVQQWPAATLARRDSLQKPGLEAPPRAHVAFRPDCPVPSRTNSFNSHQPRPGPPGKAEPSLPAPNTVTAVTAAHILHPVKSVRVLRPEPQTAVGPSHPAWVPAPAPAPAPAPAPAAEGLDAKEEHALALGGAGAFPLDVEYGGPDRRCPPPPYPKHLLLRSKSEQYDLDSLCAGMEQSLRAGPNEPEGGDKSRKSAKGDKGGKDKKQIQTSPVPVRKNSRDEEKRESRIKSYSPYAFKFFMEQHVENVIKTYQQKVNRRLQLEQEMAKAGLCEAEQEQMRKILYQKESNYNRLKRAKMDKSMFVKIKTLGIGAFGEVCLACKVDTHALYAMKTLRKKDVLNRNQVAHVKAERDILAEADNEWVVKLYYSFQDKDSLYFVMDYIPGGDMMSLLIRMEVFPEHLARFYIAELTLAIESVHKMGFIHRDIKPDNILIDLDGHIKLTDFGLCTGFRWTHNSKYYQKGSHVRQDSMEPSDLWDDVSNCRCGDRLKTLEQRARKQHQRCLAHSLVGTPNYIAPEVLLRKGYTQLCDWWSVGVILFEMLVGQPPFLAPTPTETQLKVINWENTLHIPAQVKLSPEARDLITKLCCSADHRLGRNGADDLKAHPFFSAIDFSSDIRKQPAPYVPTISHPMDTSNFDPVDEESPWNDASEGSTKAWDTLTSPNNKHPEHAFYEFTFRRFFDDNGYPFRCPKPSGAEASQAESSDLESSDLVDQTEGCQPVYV
# T15 sequence (P43403 whole entry): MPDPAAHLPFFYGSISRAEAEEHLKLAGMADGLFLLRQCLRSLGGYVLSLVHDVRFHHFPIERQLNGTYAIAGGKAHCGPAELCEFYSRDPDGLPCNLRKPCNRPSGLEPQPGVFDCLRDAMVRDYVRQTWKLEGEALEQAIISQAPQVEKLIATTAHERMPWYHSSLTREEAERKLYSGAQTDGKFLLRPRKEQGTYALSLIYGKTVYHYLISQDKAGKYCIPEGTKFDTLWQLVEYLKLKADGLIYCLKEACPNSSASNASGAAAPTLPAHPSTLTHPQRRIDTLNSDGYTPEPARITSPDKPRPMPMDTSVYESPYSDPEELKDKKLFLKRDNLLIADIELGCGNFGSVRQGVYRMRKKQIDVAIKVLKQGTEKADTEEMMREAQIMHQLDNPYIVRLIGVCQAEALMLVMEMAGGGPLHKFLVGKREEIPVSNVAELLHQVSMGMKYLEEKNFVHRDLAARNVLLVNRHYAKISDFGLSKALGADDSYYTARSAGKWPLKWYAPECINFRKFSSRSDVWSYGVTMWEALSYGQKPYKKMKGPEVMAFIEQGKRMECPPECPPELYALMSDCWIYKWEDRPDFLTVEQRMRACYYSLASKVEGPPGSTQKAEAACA
# T29 sequence (Q86Y07 whole entry): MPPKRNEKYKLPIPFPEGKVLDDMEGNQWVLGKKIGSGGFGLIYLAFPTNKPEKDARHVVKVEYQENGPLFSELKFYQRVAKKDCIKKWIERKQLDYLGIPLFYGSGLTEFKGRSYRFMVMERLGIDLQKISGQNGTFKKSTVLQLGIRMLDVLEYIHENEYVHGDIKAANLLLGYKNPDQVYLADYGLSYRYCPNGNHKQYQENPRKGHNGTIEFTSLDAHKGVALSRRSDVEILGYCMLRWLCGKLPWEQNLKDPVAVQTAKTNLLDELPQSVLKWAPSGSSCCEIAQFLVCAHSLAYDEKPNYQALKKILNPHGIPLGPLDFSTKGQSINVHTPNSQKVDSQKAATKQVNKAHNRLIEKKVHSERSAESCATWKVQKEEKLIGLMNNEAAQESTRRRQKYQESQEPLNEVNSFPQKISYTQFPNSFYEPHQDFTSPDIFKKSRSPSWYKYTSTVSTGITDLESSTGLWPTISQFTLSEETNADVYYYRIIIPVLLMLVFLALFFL
structure (smiles),measurement,setting,value
"CC(=O)Nc1nc2ccc(-c3cnc(C)c(NC(=O)OC4CCCCC4)c3)cc2s1 [PK68, cyclohexyl (5-(2-acetamidobenzo[d]thiazol-6-yl)-2-methylpyridin-3-yl)carbamate]",Activity%,GSK3b; 1 μM,97.24%
same,activity at 1 µM,GSK3b,98.1%
same,Activity%,STK32C/YANK3; 1 μM,100.29%
same,activity at 1 µM,STK32C/YANK3,101%
same,Activity%,DMPK2; 1 μM,96.42%
same,activity at 1 µM,DMPK2,98.3%
same,Activity%,PDGFRb; 1 μM,75.13%
same,activity at 1 µM,PDGFRb,76.7%
same,Activity%,MSSK1/STK23; 1 μM,100.79%
same,activity at 1 µM,MSSK1/STK23,103%
same,Activity%,PKG1a; 1 μM,90.22%
same,activity at 1 µM,PKG1a,90.3%
same,Activity%,JAK3; 1 μM,92.17%
same,activity at 1 µM,JAK3,92.9%
same,Activity%,GRK5; 1 μM,103.56%
same,activity at 1 µM,GRK5,104%
same,Activity%,CDK2/cyclin A; 1 μM,97.94%
same,activity at 1 µM,CDK2/cyclin A,98.5%
same,Activity%,ARAF; 1 μM,60.01%
same,activity at 1 µM,ARAF,60.5%
same,Activity%,"TRKB; 1 μM, ATP 10 μM, Data1, Data2",41.21%
same,activity at 1 µM,"TRKB; 1 μM, ATP 10 μM, Data1, Data2",41.2%
same,inhibition at 1 µM,TRKB; at 1000 nM,> 50%
same,Activity%,PLK2; 1 μM,102.02%
same,activity at 1 µM,PLK2,102%
same,Activity%,HIPK1; 1 μM,86.01%
same,activity at 1 µM,HIPK1,87.4%
same,Activity%,CDK4/cyclin D1; 1 μM,88.58%
same,activity at 1 µM,CDK4/cyclin D1,88.8%
same,Activity%,ZAP70; 1 μM,105.87%
same,activity at 1 µM,ZAP70,107%
same,Activity%,CAMK1a; 1 μM,98.23%
same,activity at 1 µM,CAMK1a,98.6%
same,Activity%,CDK3/cyclin E; 1 μM,91.48%
same,activity at 1 µM,CDK3/cyclin E,91.7%
same,Activity%,LATS2; 1 μM,93.96%
same,activity at 1 µM,LATS2,94.4%
same,Activity%,CTK/MATK; 1 μM,93.51%
same,activity at 1 µM,CTK/MATK,93.8%
same,Activity%,ULK3; 1 μM,92.16%
same,activity at 1 µM,ULK3,92.9%
same,Activity%,P38d/MAPK13; 1 μM,95.45%
same,activity at 1 µM,P38d/MAPK13,95.8%
same,Activity%,CDK18/cyclin Y (PCTK3); 1 μM,106.96%
same,activity at 1 µM,CDK18/cyclin Y (PCTK3),107%
same,Activity%,CAMK2g; 1 μM,105.45%
same,activity at 1 µM,CAMK2g,107%
same,Activity%,PKG2/PRKG2; 1 μM,106.03%
same,activity at 1 µM,PKG2/PRKG2,108%
same,Activity%,STK25/YSK1; 1 μM,104.63%
same,activity at 1 µM,STK25/YSK1,110%
same,Activity%,ALK5/TGFBR1; 1 μM,94.67%
same,activity at 1 µM,ALK5/TGFBR1,95.1%
same,Activity%,PKN3/PRK3; 1 μM,92.58%
same,activity at 1 µM,PKN3/PRK3,94.1%
same,Activity%,BMPR2; 1 μM,95.12%
same,activity at 1 µM,BMPR2,95.5%
same,Activity%,VRK2; 1 μM,93.34%
same,activity at 1 µM,VRK2,94.4%
same,Activity%,p70S6Kb/RPS6KB2; 1 μM,95.50%
same,activity at 1 µM,p70S6Kb/RPS6KB2,98.8%
same,Activity%,CK1g2; 1 μM,96.19%
same,activity at 1 µM,CK1g2,97.8%
same,Activity%,CDC7/DBF4; 1 μM,104.41%
same,activity at 1 µM,CDC7/DBF4,110%
